# Legend:
# human β-cells [1] = test: Analysis of human β-cell death in vitro (TUNEL/insulin staining); format: cell-based; details: 10 μM harmine, 10 nM exendin-4, 24 hours, TUNEL
# Experimental: Briefly, after washing the human islets with PBS twice, 200 μl pre-warmed Accutase (Corning) was added, and the tube was incubated at 37° C. for 10 minutes. Then, complete RPMI medium (RPMI with 5 mM D-glucose, 10% FBS, 100 units/ml penicillin, and 100 μg/ml streptomycin) was added, the sample was centrifuged at 1000 rpm for three min, the pellet was washed with PBS and centrifuged again at 1000 rpm for three min. The pellet was resuspended in complete RPMI medium and 50,000 cells/well were plated on 12-mm glass coverslips, placed in 24-well plates, and incubated at 37° C. and 5% CO2 for 24 hours. […] Cells were incubated at 37° C. and 5% CO2 for 24 hours. Then, cells were fixed in 4% paraformaldehyde and TUNEL (cell death marker) and insulin staining were performed using the DeadEnd Fluorometric TUNEL System (Promega), anti-proinsulin/C-peptide antibody (DSHB), and DAPI for nuclei detection. A minimum of 1,500 β-cells were examined per coverslip.
# human β-cells [2] = test: Human islet single cell RNA sequencing (scRNA-seq), gene set enrichment in β-cells; format: cell-based; details: human islets, 10 μM harmine, 10 nM exendin-4, 6 h
# Experimental: After treatment, human islets were washed twice with PBS and centrifuged at 300 rpm for three min. After removing the PBS, 200 μl pre-warmed Accutase was added and the islets were incubated at 37° C. for 10 minutes. Then, complete RPMI medium was added, the sample centrifuged at 1000 rpm for three min, and the pellet was washed with PBS. Cells were then resuspended in binding buffer (Miltenyi Biotec) and dead cell removal beads, the tube was incubated for 15 minutes at room temperature and the cell suspension applied onto the dead cell removal column (Miltenyi Biotec), which was attached to the MACS separator. […]
# Cell samples were prepared according to the user guide of 10× Genomics Single Cell 3′ V3.1 Reagent Kit, processed with 10× Genomic Chromium Controller for partitioning and barcoding, followed by the cDNA library generation. The total cell concentration analyzed by the Countess 3 was then sequenced by the NovaSeq 6000 System (Illumina). […] After the 10×, h5 format file was generated, the data were analyzed on the R language platform with Seurat package V.4.0. […]
# After assessment of the data quality control parameters as above, integrated scRNA-data were created with Seurat's SCTransform function without allocating method parameters. […] After enrichment scores were calculated for each single cell, they were added to the Meta data for analysis and visualization by dotplot.
# [3] = system: patients with new-onset type 1 diabetes; details: for up to seven years following initial diagnosis; cited from earlier work
Compound,human β-cell death induced by thapsigargin (human β-cells [1]; 500 nM thapsigargin),"human β-cell death induced by cytokines (human β-cells [1]; cytokines IL-1β, TNF-α, IFN-γ)",inhibitory HLA-E expression in β-cells treated with cytokines (human β-cells [2]),"expression of pro-inflammatory, intrinsic and extrinsic apoptosis, HLA class I, chemokines CXCL9-11 and interferon regulatory factor 1-9 signaling pathways in β-cells treated with cytokines (human β-cells [2]; GSEA)",loss of β-cell function [3]
COc1ccc2c(c1)[nH]c1c(C)nccc12 [harmine],"non-significant, partial protection","non-significant, partial protection",increased,not with the drugs alone,
"teplizumab: humanized, non-mitogenic aglycosylated anti-CD3 monoclonal antibody",,,,,reduces the loss of β-cell function
